Reference: ChEMBL document CHEMBL4007425, “Drug Repurposing of Histone Deacetylase Inhibitors That Alleviate Neutrophilic Inflammation in Acute Lung Injury and Idiopathic Pulmonary Fibrosis via Inhibiting Leukotriene A4 Hydrolase and Blocking LTB4 Biosynthesis” (J Med Chem, 2017)
Activity calls are given as the source filed them. No cut-off for these calls is given here.

Tests used:
Mus musculus [1] = test: Anti-inflammatory activity in LPS-induced C57BL/6 mouse model of acute lung injury assessed as reduction in total number of leucocytes in BALF at 25 mg/kg, ip pretreated for 1 hr followed LPS challenge measured after 24 hrs; type: functional, organism-based
Mus musculus [2] = test: Anti-inflammatory activity in BLM-induced C57BL/6 mouse model of acute lung injury assessed as reduction in IL-1beta mRNA level in BALF compound administered intraperitoneally once daily for 7 days post BLM challenge measured on day 7 by qRT-PCR method; type: functional
Mus musculus [3] = test: Anti-inflammatory activity in BLM-induced C57BL/6 mouse model of acute lung injury assessed as reduction in IL-6 mRNA level in BALF compound administered intraperitoneally once daily for 7 days post BLM challenge measured on day 7 by qRT-PCR method; type: functional
[4] = target: T1, Leukotriene A-4 hydrolase (Homo sapiens) (UniProt P09960)
T1 sequence (whole entry): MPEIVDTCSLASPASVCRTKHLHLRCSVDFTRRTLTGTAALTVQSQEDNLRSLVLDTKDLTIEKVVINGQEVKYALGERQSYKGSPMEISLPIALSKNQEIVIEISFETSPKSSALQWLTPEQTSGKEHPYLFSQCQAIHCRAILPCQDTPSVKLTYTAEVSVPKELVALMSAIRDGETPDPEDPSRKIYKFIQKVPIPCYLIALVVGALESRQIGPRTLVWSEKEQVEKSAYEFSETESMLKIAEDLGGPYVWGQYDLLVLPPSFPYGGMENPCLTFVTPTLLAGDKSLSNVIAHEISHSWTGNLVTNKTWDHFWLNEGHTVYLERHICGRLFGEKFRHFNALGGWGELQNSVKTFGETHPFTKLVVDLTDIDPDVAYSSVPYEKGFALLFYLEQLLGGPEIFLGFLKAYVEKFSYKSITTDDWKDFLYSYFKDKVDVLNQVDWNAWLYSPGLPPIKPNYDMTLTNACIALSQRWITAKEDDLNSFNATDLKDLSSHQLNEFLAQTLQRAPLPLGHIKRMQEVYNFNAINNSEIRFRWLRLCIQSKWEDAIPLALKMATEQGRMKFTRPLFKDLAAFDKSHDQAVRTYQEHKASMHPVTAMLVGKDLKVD
Description: Binding affinity to recombinant human LTA4H hydrolase assessed as change in melting temperature at 50 uM by SYPRO orange dye-based thermofluor assay

[5] = target: T2, Leukotriene A-4 hydrolase (Homo sapiens, UniProt P09960); test: Inhibition of recombinant human LTA4H Epoxide Hydrolase expressed in Escherichia coli BL21 (DE3) pLysS preincubated for 10 mins followed by addition of LTA4 as substrate measured after 15 mins by reverse-phase HPLC analysis
T2 sequence (P09960 whole entry): T1 sequence (whole entry)

Mus musculus [6] = test: Anti-inflammatory activity in LPS-induced C57BL/6 mouse model of acute lung injury assessed as reduction MPO activity at 25 mg/kg, ip pretreated for 1 hr followed LPS challenge measured after 24 hrs; type: functional, organism-based
Mus musculus [7] = test: Anti-inflammatory activity in LPS-induced C57BL/6 mouse model of acute lung injury assessed as reduction in pulmonary edema by measuring lung wet/dry ratio at 25 mg/kg, ip pretreated for 1 hr followed LPS challenge after 24 hrs […]; type: functional, organism-based
[8] = target: T2, Leukotriene A-4 hydrolase; test: Inhibition of recombinant human LTA4H aminopeptidase activity expressed in Escherichia coli BL21 (DE3) pLysS assessed as formation of p-NA from Ala-p-NA preincubated for 10 mins followed by substrate addition measured after 10 mins; type: ADME
Mus musculus [9] = test: Anti-inflammatory activity in BLM-induced C57BL/6 mouse model of acute lung neutrophilic inflammation assessed as reduction in number of lymphocytes in BALF at 10 and 25 mg/kg, ip qd for 7 days post BLM challenge measured on day 7; type: functional, organism-based
Mus musculus [10] = test: Anti-inflammatory activity in LPS-induced C57BL/6 mouse model of acute lung injury assessed as reduction in protein concentration in BALF at 25 mg/kg, ip pretreated for 1 hr followed LPS challenge measured after 24 hrs; type: functional, organism-based
[11] = target: T3, Polyunsaturated fatty acid 5-lipoxygenase (Homo sapiens) (UniProt P09917); test: Inhibition of recombinant human N-terminal His-tagged 5-LOX expressed in Escherichia coli assessed as conversion of arachidonic acid to HpETEs measured for 300 secs by UV-visible spectrophotometric analysis
T3 sequence (whole entry): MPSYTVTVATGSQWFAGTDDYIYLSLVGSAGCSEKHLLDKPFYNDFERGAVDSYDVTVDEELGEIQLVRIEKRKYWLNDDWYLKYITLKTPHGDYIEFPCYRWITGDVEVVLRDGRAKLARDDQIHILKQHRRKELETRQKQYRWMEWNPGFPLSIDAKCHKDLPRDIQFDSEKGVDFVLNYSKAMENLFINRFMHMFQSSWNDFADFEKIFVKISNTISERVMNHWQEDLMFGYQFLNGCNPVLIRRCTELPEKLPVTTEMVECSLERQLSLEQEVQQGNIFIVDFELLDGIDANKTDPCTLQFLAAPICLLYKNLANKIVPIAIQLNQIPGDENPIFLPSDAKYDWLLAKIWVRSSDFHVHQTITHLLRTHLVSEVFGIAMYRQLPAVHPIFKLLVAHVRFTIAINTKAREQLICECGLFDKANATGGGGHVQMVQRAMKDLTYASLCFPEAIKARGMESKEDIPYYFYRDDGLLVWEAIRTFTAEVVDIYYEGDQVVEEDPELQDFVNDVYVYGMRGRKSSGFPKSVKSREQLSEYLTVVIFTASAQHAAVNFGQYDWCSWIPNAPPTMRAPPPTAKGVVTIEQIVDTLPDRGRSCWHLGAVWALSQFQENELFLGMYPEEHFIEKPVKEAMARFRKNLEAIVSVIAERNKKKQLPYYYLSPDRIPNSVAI

Structure (SMILES)	Activity (Mus musculus [1])	Activity (Mus musculus [2])	Activity (Mus musculus [3])	ΔTm [4]	IC50 [5]	Activity (Mus musculus [6])	Activity (Mus musculus [7])	IC50 [8]	Activity (Mus musculus [9])	Activity (Mus musculus [10])	INH [11]
CN(C)c1ccc(C(=O)NCCCCCCC(=O)NO)cc1	Active	Dose-dependent effect	Dose-dependent effect	2.35 °C	0.68 µM	Active	Active	0.3 µM	Active	Active	> 50 µM
O=C(CCCCCCC(=O)Nc1ccccc1)NO [VORINOSTAT]	Active	Dose-dependent effect	Dose-dependent effect	1.47 °C	7.65 µM	Active	Active	1.67 µM	Active	Active	> 50 µM
